# Reference: patent US6613308B2, “Pulmonary delivery in treating disorders of the central nervous system” (Advanced Inhalation Research, Inc., priority 2000, dated 2003)
# Tests used:
# [1] = in vivo; conditions: Sprague Dawley, rat, 7 mg powder
# [2] = cited from earlier work
# [3] = tested on: rat model of Parkinson's disease (unilateral 6-OHDA lesion); assay: Rotation test; format: in vivo
# Method: Animals also were tested on a standard pharmacodynamics rotation test known to be a sensitive and reliable measure of dopamine activity in the brain. […] These doses were chosen for this test because they represent the doses of L-Dopa shown to produce maximal efficacy in the previous functional tests. Following dosing, animals were placed into a cylindrical Plexiglas bucket. […] Animals were also tested for rotation behavior with and without pre-treatment with carbidopa. […] Because the dopamine depletions are unilateral, the uninjected side remained intact and still able respond to changes in dopamine activity. When these animals were injected with a dopamine agonist (i.e. L-Dopa) brain dopamine activity was stimulated preferentially on the intact side. […] The onset and number of rotations provided a measure of both the time course as well as the extent of increased dopamine activity.
# [4] = tested on: rat model of Parkinson's disease (unilateral 6-OHDA lesion); assay: Akinesia task; format: in vivo
# [5] = tested on: rat model of Parkinson's disease (unilateral 6-OHDA lesion); assay: Bracing task; format: in vivo
# [6] = in vivo; conditions: rat; for bioavailability / bioavailability at 15 min / bioavailability at 60 min: 2 mg
# Method: Determinations of plasma levels of L-Dopa were made following IV injection, oral gavage, or insufflation into the lungs. Carbidopa generally is administered to ensure that peripheral decarboxylase activity is completely shut down. In this example, animals received an intraperitoneal (IP) injection of the peripheral decarboxylase inhibitor carbidopa (200 mg/kg) 1 hour prior to administration of L-Dopa. Under ketamine anesthesia, the animals were divided into 3 groups. In the first group of animals, L-Dopa (2 mg) was suspended in saline containing 1% methylcellulose and 1% ascorbic acid and given via oral gavage. In the second group, an insufflation technique was used for pulmonary administration of particles including L-Dopa (20% loading density). A laryngoscope was used to visualize the rat's epiglottis and the blunt-tip insufflation device (PennCentury Insufflation powder delivery device) was inserted into the airway. A bolus of air (3 cc), from an attached syringe, was used to delivery the pre-loaded powder from the chamber of the device into the animal's lungs. A total of 10 mg of powder (2 mg L-Dopa) was delivered. In the third group, a previously-placed femoral cannula was used to delivery a bolus (2-3 second) of L-Dopa (2 mg). Blood samples (200 μL) were withdrawn from each animal using the femoral cannula at the following timepoints: 0 (immediately prior to L-Dopa administration), 2, 5, 15, 30, 60, 120, and 240 minutes following L-Dopa administration. All samples were processed for L-Dopa determinations using HPLC.
# Bioavailability was estimated by performing area under the curve (AUC) calculations.
# [7] = tested on: rat model of Parkinson's disease (unilateral 6-OHDA lesion); assay: Placing task; format: in vivo
# [8] = tested on: migraine; conditions: cited from earlier work
# [9] = cited from earlier work; remark: listed apart in the source
smiles,measurement,setting,value
CC(C(=O)O)c1cccc(C(=O)c2ccccc2)c1 (centres unmarked) [Ketoprofen],concentration at 5 min,[1],9600 ng/mL
same,concentration at 15 min,[1],7600 ng/mL
same,concentration at 30 min,[1],5500 ng/mL
same,concentration at 60 min,[1],4500 ng/mL
same,concentration at 120 min,[1],2400 ng/mL
same,concentration at 240 min,[1],1800 ng/mL
same,concentration at 360 min,[1],1800 ng/mL
same,concentration at 480 min,[1],1300 ng/mL
same,concentration at 5 min,[1]; po,1700 ng/mL
same,concentration at 15 min,[1]; po,2100 ng/mL
same,concentration at 30 min,[1]; po,1900 ng/mL
same,concentration at 60 min,[1]; po,2000 ng/mL
same,concentration at 120 min,[1]; po,1700 ng/mL
same,concentration at 240 min,[1]; po,1400 ng/mL
same,concentration at 360 min,[1]; po,1000 ng/mL
same,concentration at 480 min,[1]; po,1000 ng/mL
same,Tmax via the oral route,[2]; oral,about 90 min
"N[C@@H](Cc1ccc(O)c(O)c1)C(=O)O [L-Dopa, levodopa]",time of peak rotations,[3]; oral 30 mg/kg,approximately 30 minutes
same,rotations during the first 10-15 minutes,"[3]; oral 30 mg/kg, carbidopa pre-treatment",< 5 rotations/animal
same,time of peak rotations,[3]; pulmonary 2 mg total,25 to 30 min
same,rotations relative to oral delivery within the first 10-15 minutes,[3]; pulmonary 2 mg total vs oral 30 mg/kg,greater than 3 times
same,time of maximal effects,[4]; oral 30 mg/kg,≤ 60 min
same,time to improved performance,[4]; oral 30 mg/kg,≤ 30 min
same,lowest dose with statistically significant (p<0.05) improvements,[4]; pulmonary,1.0 mg
same,time of peak benefits,[4]; pulmonary,15 to 30 min
same,time to significant improvements,[4]; pulmonary,≤ 10 min
same,time of maximal effects,[5]; oral 30 mg/kg,≤ 60 min
same,time to improved performance,[5]; oral 30 mg/kg,≤ 30 min
same,lowest dose with statistically significant improvements,[5]; pulmonary,0.5 mg
same,time of peak benefits,[5]; pulmonary,15 to 30 min
same,time to significant improvements,[5]; pulmonary,≤ 10 min
same,concentration at 2 min,[6],5000 ng/mL
same,bioavailability,[6],~75%
same,bioavailability at 15 min,[6],38%
same,bioavailability at 60 min,[6],62%
same,concentration at 2 min,[6]; po,1000 ng/mL
same,bioavailability,[6]; po,33%
same,bioavailability at 15 min,[6]; po,9%
same,bioavailability at 60 min,[6]; po,24%
same,"difference in drug required for equivalent efficacy, oral vs pulmonary","[7]; 30 mg/kg oral vs 1 mg pulmonary, normalized by body weight",~10 fold
same,time of maximal effects,[7]; oral 20 mg/kg,60 min
same,time of peak performance,[7]; oral 30 mg/kg,1 to 2 h
same,time to improved performance with impaired limb,[7]; oral 30 mg/kg,≤ 30 min
same,lowest dose with significant improvements,[7]; pulmonary,0.5 mg
same,time of peak benefits,"[7]; pulmonary, highest dose tested",15 to 30 min
same,time to significant improvements,"[7]; pulmonary, highest dose tested",≤ 10 min
CNS(=O)(=O)Cc1ccc2[nH]cc(CCN(C)C)c2c1 [sumatriptan],efficacy rate,[8]; administered intravenously (IV),90%
same,efficiency rate,[8]; oral form,approximately 60%
Cc1nnc2n1-c1ccc(Cl)cc1C(c1ccccc1Cl)=NC2 [triazolam],solubility in alcohol,[9]; alcohol,soluble
same,solubility in water,[9]; water,poorly soluble
Cc1ccc(-c2nc3ccc(C)cn3c2CC(=O)N(C)C)cc1 [zolpidem],Tmax,[2]; 5 mg tablet,1.6 h
same,½ Life,[2]; 5 mg tablet,2.6 h
same,time to peak plasma levels,[2]; in vivo,about 2 hours
